Results on two sequences are retold here after paper PMC6291738, “Identification of novel HIV-1-derived HLA-E-binding peptides” (Immunology Letters, 2018).

In one experiment the test system is Mamu-E*02:04. As to the kind of experiment: Single-chain peptide-β2-microglobulin-MHC-E trimer stabilization assay, HEK 293T cells, Mamu-E*02:04. The format is cell-based, rhesus macaque (Macaca mulatta). Particulars: transiently transfected HEK 293T cells; mAb 4D12. The source says: (§1) The chimeric genes coding for the single-chain peptide-β2-microblobuline-MHC-E trimers were constructed as described previously. Briefly, the DNA fragment coding the tested peptide was inserted downstream of the fragment coding for the signal sequence of HLA-E*01:01 followed by coding sequences for a flexible linker [G4S]4, β2-microglobulin and the desired heavy chain of MHC-E. […] to accommodate for the flexible linker. The assembled plasmids were then transfected into HEK 293 T cells maintained between 10% and 90% confluency at 37 °C, 5% CO2 in DMEM (Life Technologies) supplemented with 10% FBS (SeraLabs), and 50 units/ml Penicillin/50 μg/ml Streptomycin (Life Technologies). Transfections were carried out in 6-well plates using GeneJuice (Millipore) as per the manufacturer’s instructions.
(§2) To further confirm PM9-interaction with the MHC-E molecules, we employed an assay based on cell-surface stabilization of single-chain peptide-β2-microblobuline-MHC-E trimers. Briefly, a DNA fragment coding for the tested peptide, here PM9, was inserted downstream of an HLA-E leader peptide and was followed by flexible [G4S]4 linker, β2-microblobuline and Y84 A point-mutated MHC-E heavy chain, which accommodated the flexible linker (Fig. 1B left). […]

For the next experiment, the system named is CD8+ HC092 STCL cells. The format is cell-based, human. Particulars: PM9-pulsed LCL721.221 HLA-B*18:01 transfectant; volunteer 410. How it is done:
Cryopreserved PBMCs were thawed and cultures set up at 1–3 × 10^6 cells/ml in culture medium containing 1.5 μg/ml 15-mer ‘parental’ peptide and 25 ng/ml IL-7 (R & D Systems). Cultures were supplemented with 100 IU/ml IL-2 (R&D Systems) on day 3, and IL-2 plus fresh culture medium on day 7. On day 10, the cells were washed three times with culture medium, re-suspended in 1 ml of medium and placed at 37 °C, 5% CO2 for 48 h to rest prior to the ICS assay.
LCL 721.221 cell lines expressing a single HLA allele were prepulsed with corresponding peptides, added to the STCLs in a 96-well plate at 37 °C for 2 h. […]
The first-generation candidate T-cell vaccine against HIV-1 employing conserved regions of the HIV-1 proteome was tested in HIV-1-negative adults in trial HIV−CORE 002 and induced robust HIV-1-specific T-cell responses. These responses were detected by pools of 15-mer peptides overlapping by 11 amino acids across the full length of the HIV-1-derived vaccine immunogen. […] In particular, HLA restriction was determined by expanding volunteer’s PBMC with stimulatory ‘parental’ peptide […] […]

Experiment [1] addresses T1, HLA-E*01:03 (Homo sapiens, UniProt P13747). As to the kind of experiment: HLA-E/peptide cell-surface stabilization (binding) assay, RMA-S cells transfected with HLA-E*01:03. Particulars: PM9 positive control of the experimental day; RMA-S cells with HLA-E*01:03. The experiment is classed as cell-based. Also noted: RMA-S cells expressing HLA-E*01:01 and E*01:03 were generated by transfecting the genes into the RMA-S cell line; expressed in transfected cells; host or cells: murine TAP-deficient RMA-S cells. On the procedure: Binding of PM9 to both HLA-E*01:01 and –E*01:03 alleles was assessed using an HLA-E/peptide cell-surface stabilization assays. Thus, murine RMA-S cells deficient in transporter associated with antigen processing (TAP) were stably transfected with one of the two HLA-E alleles together with human β2-microglobuline. Then, stabilization of HLA-E/PM9 and HLA-E/VL9 complexes was compared in peptide-titration analyses using peptide concentrations ranging from 0.01 μg/ml to 100 μg/ml by growing transfected RMA-S cells overnight at 26 °C, pulsing them with peptide for 1 h and transferring them to 37 °C for 3 additional hours. Weak half-maximal effective concentrations (EC50) of over 100 μM were indicated for the interaction of PM9 with the two HLA-E*01:01 and E*01:03 molecules (Fig. 1A).

For a further experiment, the target named is HLA-E*01:01 (Homo sapiens, UniProt P13747, G128R). As to the kind of experiment: Single-chain peptide-β2-microglobulin-MHC-E trimer stabilization assay, HEK 293T cells, HLA-E*01:01. The experiment is classed as cell-based. Also noted: expressed in transfected cells. The settings on record: transiently transfected HEK 293T cells; mAb 3D12.
Description: as §1, §2

For experiment [2], the system named is CD8+ T cells of HIV-1-infected patients. The experiment in a line: Search for PM9-specific HLA-E-restricted CD8+ T-cell responses in natural HIV-1 infection. The format is cell-based, human. The settings on record: PBMC of 32 treatment-naïve patients chronically infected with HIV-1; barely detectable response. The source says: Cryopreserved PBMCs from 32 treatment-naïve Japanese individuals chronically infected with HIV-1 subtype B were recruited from the National Center for Global Health and Medicine. All volunteers gave written informed consent before participation. The study was approved by the ethics committees of Kumamoto University and the National Center for Global Health and Medicine. Informed consent was obtained from all individuals according to the Declaration of Helsinki. Plasma and PBMCs were separated from whole blood. HLA types of the individuals were determined by standard sequence-based genotyping.
So far, we were unable to confirm existence of vaccine- or natural HIV-1 infection-elicited CD8^+ T lymphocytes recognizing HIV-1-derived peptides through their TCR and this is not for lack of trying. […] Since humans infected with M. tuberculosis have readily detectable CD8^+ T cells specific for HLA-E-presented M. tuberculosis peptides, perhaps search for such HLA-E-restricted HIV-1-specific CD8 T cells in dually HIV-1- and M. tuberculosis co-infected individuals might yield some interesting results.

Experiment [3] deals with T1, HLA-E*01:03. As to the kind of experiment: Single-chain peptide-β2-microglobulin-MHC-E trimer stabilization assay, HEK 293T cells, HLA-E*01:03. The format is cell-based. Also noted: expressed in transfected cells. Particulars: transiently transfected HEK 293T cells; for HLA-E*01:03 single-chain trimer surface stabilization: mAb 3D12, compared with VL9 and irrelevant peptide.
Description: as §1
To further confirm PM9-interaction with the MHC-E molecules, we employed an assay based on cell-surface stabilization of single-chain peptide-β2-microblobuline-MHC-E trimers. Briefly, a DNA fragment coding for the tested peptide, here PM9, was inserted downstream of an HLA-E leader peptide and was followed by flexible [G4S]4 linker, β2-microblobuline and Y84 A point-mutated MHC-E heavy chain, which accommodated the flexible linker (Fig. 1B left). […] From these experiments, we concluded that the PM9 peptide bound to HLA-E molecules, and stabilized and increased the HLA-E expression on the cell surface.
Fig. 2 Identification of HLA-E-binding peptides in a single-chain trimer stabilization assay. A single chain peptide-β2-microglobuline-MHC-E heavy chain trimer stabilization assay was employed to determine the candidate 9-mer peptide binding to HLA-E*01:03 (brown line) and compared to that induced by VL9 (yellow area) and irrelevant (pink area) peptide. Expression of trimer on transiently transfected into HEK 293T cells was assessed using a […] 3D12 mAb in flow cytometry. Please see gating strategy in Fig. S3.

In experiment [4] the target is T1, HLA-E*01:03. The settings on record: summary of both assays.

Values joined by “and” are separate entries in the source; they are usually repeats but may differ in a detail not shown here. Identical values can stand only once. No end group written: not given here.

As for PEIVIYQYM [PM9], the “Mamu-E*02:04 single-chain trimer surface expression (MFI) relative to non-binding peptide” value in the experiment with Mamu-E*02:04 is reported as “increased the mean fluorescent intensity (MFI) relative to a non-binding peptide”. In addition, the “IFN-γ production by CD8+ HC092 STCL cells” value in the experiment with CD8+ HC092 STCL cells was found to be 28.3%. The “Cell-Surface Stabilization Index E*01:03/PM9” value at HLA-E*01:03 [1] is 0.658 and 0.733 and 0.617 and 0.620. Moreover, the “HLA-E*01:01 single-chain trimer surface expression (MFI) relative to non-binding peptide” value on HLA-E*01:01 is listed as “increased the mean fluorescent intensity (MFI) relative to a non-binding peptide”. The “PM9-specific HLA-E-restricted CD8+ T-cell responders” value in experiment [2] is listed as “one possible responder out of 32 patients”. Also, at HLA-E*01:03 [3] (highest increase of the three MHC-E molecules), the “HLA-E*01:03 single-chain trimer MFI relative to VL9 MFI” value is “approximately half of the VL9 MFI”. Further, the “HLA-E*01:03 single-chain trimer surface stabilization” value on HLA-E*01:03 [3] is “increased the mean fluorescent intensity (MFI) relative to a non-binding peptide”. Moreover, the “HLA-E binder classification across the SCT assay and the LCL721.221-HLA-E*01:03 assay (MFI over 4000)” value at HLA-E*01:03 [4] was “both the SCT assay and over 4000 MFI in the LCL721.221-HLA-E*01:03 assay”.
On to TVCVIWCIH [TH9, reference compound], for which the “Mamu-E*02:04 single-chain trimer surface expression (MFI) relative to non-binding peptide” value with Mamu-E*02:04 is listed as “non-binding”. For the same sequence, on HLA-E*01:01, the “HLA-E*01:01 single-chain trimer surface expression (MFI) relative to non-binding peptide” value is listed as “non-binding”. For the same sequence, on HLA-E*01:03 [3], the “HLA-E*01:03 single-chain trimer surface stabilization” value was “non-binding”.
